In one data set the test system is C. hominis (TU 502). Briefly: C. hominis TU502 growth in HCT-8 cells. As to conditions: Cryptosporidium hominis. The format is cell-based. As for the experimental part: (§1) Studies using farm C. parvum isolates and the C. hominis TU502 isolate were performed by Calibr at Scripps Research (La Jolla, Calif.) in 1,536-well plates using a slightly modified immunofluorescence assay as described in Love, M. S. et al. PLoS neglected tropical diseases 11, e0005373, doi:10.1371/journal.pntd.0005373 (2017), hereby incorporated by reference in its entirety. HCT-8 cell culture medium was replaced with RPMI 1640 medium supplemented with 2% heat-inactivated horse serum, 100 U·mL^−1 penicillin, and […] 24 h prior to infection with the indicated isolate. The C. parvum Iowa isolate was included as a reference in all experiments. Imaging was performed using a Cellnsight CX5 High Content screening platform (Thermo Scientific) with a 10× objective and acquisition of one microscopic field per well. Images were processed using HCS Studio Scan software, and the selected-object count (HCT-8 cells) and spot count (parasitophorous vacuoles) were analyzed in Genedata Screener (version 13.0; Standard). Dose-response curves and EC50 values were calculated using the Smart Fit function of Genedata Analyzer.

Data set [1] concerns C. parvum (Iowa) Sterling. Put plainly: C. parvum (Iowa) Sterling growth in HCT-8 cells. It is filed as cell-based. Particulars: Cryptosporidium parvum. As for the experimental part:
as §1

The subject of data set [2] is C. parvum Iowa isolate (Bunch Grass Farm). Put plainly: C. parvum Iowa isolate (Bunch Grass Farm) growth in HCT-8 cells, high-content microscopy. The format is cell-based. Particulars: Cryptosporidium parvum. As for the experimental part:
A high-content microscopy assay was used to measure activity of compounds against C. parvum grown in the human adenocarcinoma cell line HCT-8 (ATCC) as disclosed in Bessoff, K., et al., Antimicrobial agents and chemotherapy 57, 1804-1814, doi:10.1128/AAC.02460-12 (2013), hereby incorporated by reference in its entirety. HCT-8 cells were cultured in 384-well clear-bottomed plates in 50 μL per well of RPMI 1640 medium ([…]), 120 U·mL^−1 penicillin, and 120 μg·mL^−1 streptomycin (ATCC) at 37° C. under 5% CO2. For compound screening and follow-up SAR studies, confluent cell monolayers were infected with C. parvum Iowa isolate oocysts [Bunch Grass Farm (Deary, Id.); ˜5,500 oocysts per well] after inducing excystation by treatment for 10 min at 37° C. with 10 mM HCl and then 10 min at 16° C. in 2 mM sodium taurocholate. Compounds were added at the indicated concentrations 3 h after monolayer infection. After incubation (37° C., 5% CO2) for 48 h, the cells were washed three times with PBS containing 111 mM D-Galactose and fixed by adding an equal volume of 8% formaldehyde in PBS. Cell monolayers were then prepared for microscopy by permeabilizing with 0.1% Triton X-100, washing three times with PBS with 0.1% Tween 20, blocking with 4% bovine serum albumin (BSA) in PBS for 2 h at 37° C. or 4° C. overnight, and staining parasitophorous vacuoles with 1.33 μg·mL^−1 of fluorescein-labeled Vicia villosa lectin (Vector Laboratories) diluted in 1% BSA in PBS with 0.1% Tween 20 for 1 h at 37° C. DNA was then stained by adding Hoechst 33258 (AnaSpec) at a final concentration of 0.09 mM diluted in water, followed by washing five times with PBS containing 0.1% Tween 20. Images were acquired using a Nikon Eclipse TE2000 epifluorescence microscope with an automated stage that was programmed using NIS-Elements Advanced Research software (Nikon) to focus on the center of each well and take a 3×3 composite image using an EXi Blue fluorescence microscopy camera (QImaging) with a 20× objective (numerical aperture 0.45). Nucleus and parasite images were exported separately as tif files and analyzed using NIH ImageJ and previously reported macros, and data analysis and graphing were done using GraphPad Prism software, version 6.01. […]

For data set [3], the system named is C. parvum (Field Isolate) WSU. Briefly: C. parvum field isolate (WSU) growth in HCT-8 cells. It is filed as cell-based. Particulars: Cryptosporidium parvum. As for the experimental part: as §1
For data set [4], the system named is C. parvum. Briefly: NOD SCID gamma mouse model of established cryptosporidiosis, fecal oocyst shedding by qPCR. It is filed as in vivo, NOD SCID gamma mice. Particulars: oral, 50 mg/kg every 24 h for 4 days. From the text: FIG. 4A is a schematic of NOD SCID gamma (NSG) mouse model of established intestinal cryptosporidiosis. Intestinal C. parvum infection was established by oral gavage of ˜10^5 oocysts either 7 days (FIGS. 4B and C) or 14 days (FIG. 4D) prior to oral treatment with bicyclic azetidines, vehicle, or paromomycin (positive control). All data are the mean and SEM (n=4 mice per experimental group) of parasite shedding per mg of feces measured by qPCR with results for individual mice shown as superimposed data points. Data points for which no parasite DNA was detected are shown at the qPCR assay limit of detection (0.1 oocysts per mg feces).
NOD scid gamma mice (NOD.Cg-Prkdcscid Il2rgtmlWjl/Szj; Jackson Laboratory, Bar Harbor, Me.) (NSG) were used to model established Cryptosporidium infection. All NSG mouse studies were performed in compliance with animal care guidelines and with approval by the University of Vermont Institutional Animal Care and Use Committee. Mice were acquired at three to four weeks of age, and acclimatized for one week prior to infection by oral gavage of ˜10^5 C. parvum Iowa isolate (Bunch Grass Farms) oocysts. They were then treated at the specified times and dosages with each compound dissolved in 0.5% hydroxypropylmethyl cellulose, 0.5% Tween 80 (v/v) plus 5% DMSO.
This cryptosporidiosis infection model used 3-4 week old, freshly weaned, NOD SCID gamma mice orally infected with C. parvum oocysts (˜1×10^5). The infection was monitored by qPCR of feces with primers specific for C. parvum and data are shown as number of oocysts milligram^−1 of feces. Six days following infection and upon confirmation of parasite shedding by qPCR, the three compounds, negative and positive control were orally administered at 50 mg·kg^−1 (body weight) every 24 h for 4 days. (FIGS. 4A-D). […] We then performed a dose-ranging study with Compound 11 using the same immunocompromised mouse model and dosing regimens of 5, 20 and 40 mg·kg^−1 every 24 h for 4 days or 10 mg·kg^−1 every 24 h for 7 days. Mice were monitored for an additional 14 days for relapse of infection.
A general note: Real-time PCR tracks product formation cycle by cycle.

The nature of the next data set: HepG2 cytotoxicity. The format is cell-based. As to conditions: human, HepG2 cells.
A further data set is described as follows: HEK293T cytotoxicity. The format is cell-based. As to conditions: human, HEK293T cells.
The subject of data set [5] is C. parvum. Particulars: general statement or literature report; cited from earlier work.
In data set [6] the test system is C. parvum WT transgenic PheRS (wtL482). Briefly: In vitro drug susceptibility in HCT-8 cells, luminescence, wild type transgenic. The format is cell-based. As to conditions: Cryptosporidium parvum, HCT-8, 48 h, read-out: EC50, wild type transgenic. As for the experimental part:
(§2) The in vitro drug susceptibility assay using transgenic parasites expressing Nluc was performed as described in Vinyak et al. Briefly, host intestinal epithelial adenocarcinoma (HCT-8) cells grown in 96-well plates were infected with purified transgenic Nluc-expressing oocysts (1,000 oocysts per well) and incubated with different concentrations of Compound 11 for 48 hours. Culture supernatant was discarded from the wells after 48 hours, and 200 μl of NanoGlo lysis buffer containing 1:50 of NanoGlo substrate (Promega) was added to the wells. Lysates were transferred to white 96-well plates and luminescence was measured on a Glomax luminescence reader (Promega). EC50 values were calculated in GraphPad Prism software v7.
(§3) Oocysts from the mutant (mut482V) and wild type (wtL482) transgenic lines were purified as well as the parent strain (Bunchgrass) used to generate the transgenics. Sporozoites were excised from these oocysts and used to infect 96 well format HCT-8 cultures to perform in vitro drug susceptibility assays. Cultures were incubated for 48 hours in the presence of varying concentrations of Compound 11 and parasite growth was measured by establishing whole well luciferase activity to calculate EC50 values for each strain.

Data set [7] relates to C. parvum mutant transgenic PheRS (mut482V). Put plainly: microbe, parasite or virus in culture. It is filed as cell-based, Cryptosporidium parvum. As for the experimental part: as §2, §3
The next data set has as its system P. falciparum. Put plainly: P. falciparum blood-stage growth inhibition. It is filed as cell-based. Particulars: Plasmodium falciparum. As for the experimental part:
Pf EC50's were obtained using the procedure disclosed in Bessoff, K. et al. Antimicrobial agents and chemotherapy 58, 2731-2739, doi:10.1128/AAC.02641-13 (2014), hereby incorporated by reference in its entirety. Reduction in C. parvum oocysts/mg feces was determined in the C. parvum immunocompromised mouse model as described in the Examples.

[8] abbreviates: read-out: C. parvum (Iowa) (1% FBS) BGF EC50.
[9] abbreviates: read-out: C. parvum (Iowa) (10% FBS) BGF EC50.
Setting [10] is: serum not given, read-out: C. parvum EC50.

Where two headings read alike, the source gives them in different places.

The source of these data is patent US20230009323A1, “COMPOUNDS AND METHODS FOR THE TREATMENT OF CRYPTOSPORIDIOSIS” (The Broad Institute, Inc., priority 2019, published 2023).

Usually EC50 stands for the concentration that produces a half-maximal response. For orientation: CC50 means the concentration giving 50% cytotoxicity.

In the case of `COc1ccc(NC(=O)N2CCCCN3[C@H](COCCC(=O)O)[C@H](c4ccc(C#Cc5ccccc5)cc4)[C@@H]3C2)cc1` [Compound 10, 3-(((8R,9R,10S)-6-((4-methoxyphenyl)carbamoyl)-9-(4-(phenylethynyl)phenyl)-1,6-diazabicyclo[6.2.0]decan-10-yl)methoxy)propanoic acid], the concentration giving a half-maximal response (EC50) with C. hominis (TU 502) is 5 nM; in [1] it was 2 nM; in [2] (setting [8]), 4 nM; in data set [2] (setting [9]) it was 15 nM; in data set [2] (setting [10]), under 73 nM; in data set [3] it was 9 nM. For the same molecule, the “reduction in oocyst shedding (oocysts per mg feces)” value (from here on “reduction … (oocysts per mg feces)”) with C. parvum [4] was “significant reduction in oocyst shedding”. In addition, the CC50 in the data set “HepG2 cytotoxicity” and in “HEK293T cytotoxicity” was over 40000 nM throughout.

For the molecule `COc1ccc(NC(=O)N2CCCCN3[C@H](CO)[C@H](c4ccc(C#Cc5ccccc5)cc4)[C@@H]3C2)cc1` [Compound 9, (8R,9R,10S)-10-(hydroxymethyl)-N-(4-methoxyphenyl)-9-(4-(phenylethynyl)phenyl)-1,6-diazabicyclo[6.2.0]decane-6-carboxamide], the half-maximal effective concentration (EC50) in data set [2] (setting [10]) is under 73 nM. Also, in the data set with C. parvum [4], the “reduction … (oocysts per mg feces)” value is “significant reduction in oocyst shedding”.

In the case of `COc1ccc(NC(=O)N2CCCCN3[C@H](CN(C)S(C)(=O)=O)[C@H](c4ccc(C#Cc5ccccc5)cc4)[C@@H]3C2)cc1` [Compound 17, (8R,9R,10S)-N-(4-methoxyphenyl)-10-((N-methylmethylsulfonamido)methyl)-9-(4-(phenylethynyl)phenyl)-1,6-diazabicyclo[6.2.0]decane-6-carboxamide], the concentration for a half-maximal effect (EC50) is 4 nM in the data set with C. hominis (TU 502); 5 nM in data set [1]; 6 nM in [2] (setting [8]); 7 nM in data set [2] (setting [9]); 6 nM in data set [3]. Besides, in the data set on C. parvum [4], the “reduction … (oocysts per mg feces)” value was “greatest reduction in oocysts”. The cytotoxic concentration (CC50) in the data set “HepG2 cytotoxicity” and in the data set “HEK293T cytotoxicity” was over 40000 nM each time.

With `NC[C@@H]1O[C@H](O[C@H]2[C@@H](O)[C@H](O[C@@H]3[C@@H](O)[C@H](N)C[C@H](N)[C@H]3O[C@H]3O[C@H](CO)[C@@H](O)[C@H](O)[C@H]3N)O[C@@H]2CO)[C@H](N)[C@@H](O)[C@@H]1O` [paromomycin], the “outcome of treatment in C. parvum infected NSG mice” value (“outcome of treatment” for short) with C. parvum [5] is “quickly relapse”.

`CC(C)/N=c1\cc2n(-c3ccc(Cl)cc3)c3ccccc3nc-2cc1Nc1ccc(Cl)cc1` [clofazimine]: the “outcome of treatment” value in the data set on C. parvum [5] is listed as “show no improvement at all”.

As to `O=C(Nc1ccc(Cl)cc1)N1CCN(c2ccc3nncn3n2)CC1` [MMV665917], the “outcome of treatment” value with C. parvum [5] is on record as “curative”.

In the case of `COc1ccc(NC(=O)N2C[C@@H](O)[C@@H](O)CN3[C@H](CS(C)(=O)=O)[C@H](c4ccc(C#Cc5ccccc5)cc4)[C@@H]3C2)cc1` [Compound 18, (3S,4R,8R,9R,10S)-3,4-dihydroxy-N-(4-methoxyphenyl)-10-((methylsulfonyl)methyl)-9-(4-(phenylethynyl)phenyl)-1,6-diazabicyclo[6.2.0]decane-6-carboxamide], the 50% effective concentration (EC50) in the data set with C. hominis (TU 502) is 2 nM; in [1], under 0.4 nM; in [2] (setting [8]), under 0.4 nM; in [3] it was under 0.4 nM. Besides, the half-maximal cytotoxic concentration (CC50) in the data set “HepG2 cytotoxicity” was found to be 8000 nM; in the data set “HEK293T cytotoxicity” it was 6000 nM.

On to `COc1ccc(NC(=O)N2CCCCN3C[C@H](c4ccc(C#Cc5ccccc5)cc4)[C@@H]3C2)cc1` [Compound 19, (8R,9S)-N-(4-methoxyphenyl)-9-(4-(phenylethynyl)phenyl)-1,6-diazabicyclo[6.2.0]decane-6-carboxamide], for which the EC50 in the data set on C. hominis (TU 502) was 55 nM; in [1], 31 nM; in [2] (setting [8]) it was 36 nM; in data set [2] (setting [9]), 62 nM; in data set [3] it was 96 nM; in data set [6], 40.8 nM. In addition, the half-maximal effective concentration (EC50) in [7] (Cryptosporidium parvum, HCT-8, 48 h, read-out: EC50, mutant transgenic) turned out to be 372 nM. For the same molecule, the CC50 in “HepG2 cytotoxicity” was 10000 nM; in “HEK293T cytotoxicity”, 25000 nM. The “fold shift in EC50, mutant transgenic vs wild type transgenic” value in [7] is recorded as 9 fold.

On to `COC[C@@]12CN(C(=O)Nc3ccc(OC)cc3)CCCCN1[C@H](CO)[C@@H]2c1ccc(C#Cc2ccccc2)cc1` [Compound 2, (8R,9S,10S)-10-(hydroxymethyl)-8-(methoxymethyl)-N-(4-methoxyphenyl)-9-(4-(phenylethynyl)phenyl)-1,6-diazabicyclo[6.2.0]decane-6-carboxamide], for which the values for the EC50 (in [2] (setting [10]); in the data set on P. falciparum) were 580 nM and 627 nM, respectively.
